System: trypsin
Assay: Trypsin digestion of Angiotensin III, LC-MS
Type: in vitro ADME
Conditions: 10 mM phosphate buffer pH 7.4, no nanoparticle (Figure 1a)

time in which the peptide could be cleaved in buffer: 120 min
Structure (SMILES): CC[C@H](C)[C@H](NC(=O)[C@H](Cc1ccc(O)cc1)NC(=O)[C@@H](NC(=O)[C@@H](N)CCCN=C(N)N)C(C)C)C(=O)N[C@@H](Cc1c[nH]cn1)C(=O)N1CCC[C@H]1C(=O)N[C@@H](Cc1ccccc1)C(=O)O [A‐III, Angiotensin III]
